Measured values reported in BindingDB's records for doi:10.1016/j.bioorg.2017.03.013 (Birla Institute of Technology, 2017).

Biological target: Gag-Pol polyprotein (Human immunodeficiency virus type 1 group M subtype B (isolate HXB2), UniProt P04585)
Assay: HIV-1 RT In-Vitro Assay
Description: The reaction mixture was set with template primer complex, RT enzyme and dNTPs in a lysis buffer with or without inhibitors. The reaction mixture was incubated at 37 °C for 1 h and then transferred to streptavidine-coated microtitre plate (MTP). The biotin-labeled dNTPs that were incorporated in the template due to activity of RT, bound to streptavidine. The unbound dNTPs were washed using wash buffer and anti-DIG-POD was added to the MTP. The DIG-labeled dNTPs incorporated in the template were bound to an anti-DIG-POD antibody. The unbound anti-DIG-POD was washed again with washing buffer and the peroxide substrate (ABST) was added to the MTP. A colored reaction product was produced during the cleavage of the substrate catalyzed by a peroxide enzyme. The absorbance of the sample was determined as an optical density (OD) at 405 nm using a micro titer plate ELISA reader.

Question: Which IC50 does the source give for `CC1CC(=O)Nc2ccccc2N1C(=O)c1ccccc1Br` (centres undefined) [5-(2-bromobenzoyl)-4-methyl-1,3,4,5-tetrahydro-2H-1,5-benzodiazepin-2-one (A13)] here?
Answer: 92.5 µM

Question: How did the IC50 turn out when `CC1CC(=O)Nc2ccccc2N1C(=O)c1ccccc1Cl` (centres undefined) [5-(2-chlorobenzoyl)-4-methyl-1,3,4,5-tetrahydro-2H-1,5-benzodiazepin-2-one (A10)] was run?
Answer: 8.62 µM

Question: `CC1CC(=O)Nc2ccccc2N1C(=O)c1ccccc1F` (centres undefined) [5-(2-fluorobenzoyl)-4-methyl-1,3,4,5-tetrahydro-2H-1,5-benzodiazepin-2-one (A7)] was tested. Which IC50 did it give?
Answer: > 100 µM

Question: `Cc1ccccc1C(=O)N1c2ccccc2NC(=O)CC1C` (centres undefined) [5-(2-methylbenzoyl)-4-methyl-1,3,4,5-tetrahydro-2H-1,5-benzodiazepin-2-one (A2)] was tested. Which IC50 did it give?
Answer: 14.3 µM

Question: With `CC1CC(=O)Nc2ccccc2N1C(=O)c1cccc(Cl)c1` (centres undefined) [5-(3-chlorobenzoyl)-4-methyl-1,3,4,5-tetrahydro-2H-1,5-benzodiazepin-2-one (A11)] as the compound, how does the IC50 read?
Answer: 6.87 µM

Question: With `CC1CC(=O)Nc2ccccc2N1C(=O)c1cccc(F)c1` (centres undefined) [5-(3-fluorobenzoyl)-4-methyl-1,3,4,5-tetrahydro-2H-1,5-benzodiazepin-2-one (A8)] as the compound, how does the IC50 read?
Answer: 76.3 µM

Question: Which IC50 does the source give for `COc1cccc(C(=O)N2c3ccccc3NC(=O)CC2C)c1` (centres undefined) [5-(3-methoxybenzoyl)-4-methyl-1,3,4,5-tetrahydro-2H-1,5-benzodiazepin-2-one (A5)] here?
Answer: 87.9 µM

Question: With `Cc1cccc(C(=O)N2c3ccccc3NC(=O)CC2C)c1` (centres undefined) [5-(3-methylbenzoyl)-4-methyl-1,3,4,5-tetrahydro-2H-1,5-benzodiazepin-2-one (A3)] as the compound, how does the IC50 read?
Answer: 26.4 µM

Question: For `CC1CC(=O)Nc2ccccc2N1C(=O)c1ccc(Br)cc1` (centres undefined) [5-(4-bromobenzoyl)-4-methyl-1,3,4,5-tetrahydro-2H-1,5-benzodiazepin-2-one (A14)], which IC50 is on record?
Answer: 68.7 µM

Question: Which IC50 does the source give for `CC1CC(=O)Nc2ccccc2N1C(=O)c1ccc(Cl)cc1` (centres undefined) [5-(4-chlorobenzoyl)-4-methyl-1,3,4,5-tetrahydro-2H-1,5-benzodiazepin-2-one (A12)] here?
Answer: 38.3 µM

Question: `CC1CC(=O)Nc2ccccc2N1C(=O)c1ccc(F)cc1` (centres undefined) [5-(4-fluorobenzoyl)-4-methyl-1,3,4,5-tetrahydro-2H-1,5-benzodiazepin-2-one (A9)] was tested. Which IC50 did it give?
Answer: 25 µM

Question: With `COc1ccc(C(=O)N2c3ccccc3NC(=O)CC2C)cc1` (centres undefined) [5-(4-methoxybenzoyl)-4-methyl-1,3,4,5-tetrahydro-2H-1,5-benzodiazepin-2-one (A6)] as the compound, how does the IC50 read?
Answer: 54.6 µM

Question: How did the IC50 turn out when `Cc1ccc(C(=O)N2c3ccccc3NC(=O)CC2C)cc1` (centres undefined) [5-(4-methylbenzoyl)-4-methyl-1,3,4,5-tetrahydro-2H-1,5-benzodiazepin-2-one (A4)] was run?
Answer: > 100 µM

Question: For `CC1CC(=O)Nc2ccccc2N1C(=O)c1ccccc1` (centres undefined) [5-(benzoyl)-4-methyl-1,3,4,5-tetrahydro-2H-1,5-benzodiazepin-2-one (A1)], which IC50 is on record?
Answer: 17.5 µM
